The values that follow come from patent publication US20220000887A1, “REPURPOSED ANTIBIOTICS FOR NON-NUCLEAR GENOTOXIC CHEMOTHERAPY AND PHARMACEUTICAL COMPOSITION FOR ANTI-CANCER CONTAINING THE SAME” (Korea University Research and Business Foundation, priority 2019, published 2022).

Structures are written as SMILES. pIC50: −log10 of the molar value. Several values for one entry are separate records, joined by “and”; a condition that tells them apart may be missing. Equal values may be shown once. Entries after “also recorded” stand apart in the source; their conditions may differ. Read-outs that look alike come from different tables or passages of the source.

The subject of series [1] is nuclear DNA and mitochondrial DNA. The series is described as follows: Damage to nuclear DNA and mitochondrial DNA (FIG. 8).
Description: (§2) RNA was extracted from each sample using TRIzol solution. cDNA synthesized from the isolated RNA or intracellular genomic DNA extracted using a genomic DNA isolation kit was used for real-time polymerase chain reaction (PCR).
(§3) The real-time PCR data were normalized by the expression of glyceraldehyde-3-phosphate dehydrogenase (GAPDH). Relative expression levels were expressed as fold changes over the control. The results (mean±SE) were obtained in triplicate and a p value <0.05 was taken to be statistically significant.
Series [2] has as its system PC3 (prostate cancer cells). The series can be described thus: Cell viability analysis (LDH assay), PC3. Format: cell-based, human. To be noted: FIG. 3. As for the experimental part:
(§1) Particularly, the inventive anticancer drugs had IC50 values of 23.77 μM and 27.05 μM against A549 and SW620, respectively.

For series [3], the system named is SW620 (colon cancer cells). The series can be described thus: Cell viability analysis (LDH assay), SW620. Format: cell-based, human. The following applies: FIG. 3. The method, then: as §1
In the next series the test system is A549 (lung cancer cells). The series is described as follows: Cell viability analysis (LDH assay), A549. The class given is cell-based, human. The following applies: FIG. 3. The method, then: as §1
The test system of series [4] is MDA-MB-231 metastatic breast cancer cells. The series is described as follows: Cell viability analysis (LDH assay), MDA-MB-231. To be noted: for apoptotic effect on MDA-MB-231 cells: 48 h treatment.
Series [5] relates to DU145 (prostate cancer cells). The series is described as follows: Cell viability analysis (LDH assay), DU145. To be noted: FIG. 3. Format: cell-based, human. As for the experimental part:
as §1

A further series relates to MDA-MB-231 xenograft. The series can be described thus: In vivo mouse xenograft model. The following applies: intravenous three times a week, 12 weeks, BALB/c-nu-nu mice.
Series [6] deals with MDA-MB-231 cells. The series is described as follows: FACS measurement of Annexin-V positive apoptotic cells. The class given is cell-based, human. The following applies: 10 μM, 0, 6, 12, 24 h, Annexin V assay, FIG. 7. As for the experimental part:
Annexin-V positive apoptotic cells were analyzed by flow cytometry. To this end, the MDA-MB-231 cells were treated with 10 μM Ester MT-CFX for different periods of time (0, 6, 12, and 24 h) and cultured for indicated periods of time. Cells were harvested, washed twice with ice-cold PBS, placed in BD FACS tubes (10^6/mL), and cultured with 10 μg/mL annexin V in PBS containing 10% FBS at room temperature for 30 min. Subsequently, cells were washed with ice-cold PBS and annexin V fluorescence was measured in the FL-1 channel using a FACSCalibur flow cytometer (BD, USA).

Series [7] concerns nuclear DNA and mitochondrial DNA.
Description: as §2, §3
Series [8] concerns mitochondrial DNA synthesis. The series is described as follows: Mitochondrial DNA synthesis (FIG. 5). Format: cell-based.
Description: as §2, §3
Series [9] relates to MDA-MB-231 cells. The series is described as follows: Reactive oxidative species (ROS) measurement (Amplex Red, CM-H2DCFDA). The class given is cell-based, human. To be noted: 10 μM, 48 h, FIG. 4. The method, then:
The activity of hydrogen peroxide (H2O2) produced in cells was evaluated by detection with Amplex® Red reagent (10-acetyl-3,7-dihydroxyphenoxazine; Thermo Fisher scientific). Here, Amplex® Red reagent reacts with H2O2 in a stoichiometric ratio of 1:1 in the presence of peroxidase in cells to produce resorufin as a red fluorescent product. The fluorescence of resorufin can be analyzed at excitation and emission wavelengths of 571 nm and 581 nm, respectively. The MDA-MB-231 cell line was seeded into a 96-well plate and treated with 10 μM Ester MT-CFX for 48 h. Thereafter, the amount of hydrogen peroxide was measured. A reaction mixture of 50 μM Amplex® Red reagent and 0.1 U/mL HRP was prepared in Krebs-Ringer phosphate buffer (145 mM NaCl, 5.7 mM sodium phosphate, 4.86 mM KCl, 0.54 mM CaCl2, 1.22 mM MgSO4, 5.5 mM glucose, pH 7.35). 100 μL of the reaction mixture was added to each plate well, followed by incubation at 37° C. for 10 min. The brightness of fluorescence was measured at 530-560 nm excitation and 590 nm emission wavelengths using a microplate reader. The MDA-MB-231 cell line was seeded into a confocal dish. […] The fluorescence of reactive oxygen species produced in cells was imaged by confocal laser scanning microscopy at 492-495 nm excitation and 517-527 nm emission wavelengths.

Series [10] has as its system nuclear and mitochondrial DNA. The series is described as follows: Real-time PCR for nuclear and mitochondrial DNA damage lesions (FIG. 11). The class given is cell-based. A general note: Quantitative PCR measures a nucleic acid by following its amplification.
Description: as §2, §3
Series [11] concerns mitochondrial genomic DNA. The series can be described thus: Taq1 assay for damage to mitochondrial genomic DNA (FIG. 10). The class given is cell-based.
The subject of series [12] is MDA-MB-231 cells. The series can be described thus: Mitochondrial membrane potential measurement (JC-1 assay). Format: cell-based, human. The following applies: 10 μM, 0, 6, 12, 24 h, FIG. 7. The method, then:
Mitochondrial membrane potential differences were measured. To this end, the MDA-MB-231 cells were treated with 10 μM Ester MT-CFX for different periods of time (0, 6, 12, and 24 h) and cultured for indicated periods of time. Cells were harvested, washed once with ice-cold PBS, and cultured with […] 5,5′,6,6′-tetrachloro-1,1′,3,3′-tetraethyl-benzimidazolyl carbocyanine chloride (JC-1) at 37° C. for 20 min. The JC-1 stained cells were centrifuged at 1,300 g for 3 min and washed twice with ice-cold PBS. Mitochondrial membrane potentials of JC-1 monomer (green channel) and aggregate (red channel) were measured in different wavelength bands.

Protocol for MDA-MB-231 xenograft: Five-week-old immunodeficient male BALB/c-nu-nu mice (Orient bio, Korea) weighing between 18-20 g were used. The animals were bred and housed in a facility maintaining a humidity of 30-40% and a temperature of 22±1° C. on a 12-h light/dark cycle. All animal experiments were approved by the Ethics Committee for Animal Studies at Korea University. Animals were treated in accordance with the protocol approved by the Ethics Committee.
MDA-MB-231 cells (5×10^6 cells) were injected subcutaneously into 6-week-old immunodeficient BALB/c-nu-nu mice weighing between 18-20 g to establish tumor-bearing mouse models. […] The lengths of the long and short axes of tumors were measured weekly. 12 weeks after the first injection of each compound, the mice were sacrificed and tumor samples were collected for further analysis. […] Each asterisk (*) indicates a significant difference to the corresponding control.

`COc1cccc2c1C(=O)c1c(O)c3c(c(O)c1C2=O)C[C@@](O)(C(=O)CO)C[C@@H]3O[C@H]1C[C@H](N)[C@H](O)[C@H](C)O1` [doxorubicin, reference compound]: the “toxicity to nuclear genes” value in series [1] was “strong toxicity to nuclear genes”.
Take `O=C(NCCCCCC[P+](c1ccccc1)(c1ccccc1)c1ccccc1)c1cn(C2CC2)c2cc(N3CCNCC3)c(F)cc2c1=O.[Cl-]` [Amide Mt-CFX]: the “apoptotic effects on PC3” value in series [2] is “apoptotic effects”. Further, in series [3], the “apoptotic effects on SW620” value is recorded as “apoptotic effects”. Moreover, in the series on A549 (lung cancer cells), the “apoptotic effects on A549” value is reported as “apoptotic effects”. Also, the “apoptotic effect on MDA-MB-231 cells” value in series [4] (LDH assay) is given as “enhanced apoptotic effect; also recorded: apoptotic effects”. In addition, the “apoptotic effects on DU145” value in series [5] is recorded as “apoptotic effects”.
As for `O=C(O)c1cn(C2CC2)c2cc(N3CCNCC3)c(F)cc2c1=O` [ciprofloxacin, reference compound], in series [4] (LDH assay), the “apoptotic effect on MDA-MB-231 cells” value is “little or no apoptotic effect”.
For `Cl.O=C(OCCCCCC[P+](c1ccccc1)(c1ccccc1)c1ccccc1)c1cn(C2CC2)c2cc(N3CCNCC3)c(F)cc2c1=O.[Cl-]` [Ester Mt-CFX], in the series on MDA-MB-231 xenograft, the “cancer volume compared to control” value was “significant reduction in cancer volume”. In addition, the “toxicity to mitochondrial genes” value in series [1] was “selective toxicity to mitochondrial genes”. Besides, the apoptosis over time entry in the series with MDA-MB-231 cells [6] is listed as “occurrence of apoptosis over time”. In [7], the “toxicity to nuclear genes” value is recorded as “no toxicity to nuclear genes”. In addition, in series [8], the “mitochondrial DNA synthesis” value is reported as “inhibition of mitochondrial DNA synthesis”. Also, the “apoptotic effects on PC3” value in series [2] is recorded as “apoptotic effects”. The “apoptotic effects on SW620” value in series [3] is “apoptotic effects”. The “production of reactive oxygen species” value with MDA-MB-231 cells [9] is “reactive oxygen species are produced”. In the series on A549 (lung cancer cells), the “apoptotic effects on A549” value is on record as “apoptotic effects”. Besides, the “apoptotic effect on MDA-MB-231 cells” value in series [4] (LDH assay) is “strong apoptotic effect; also recorded: apoptotic effects”. In addition, in series [4] (MDA-MB-231, 48 h treatment, LDH assay), the pIC50 was ~4.82 and 4.52 to 4.70. Besides, the “apoptotic activity against the cancer cells, fold higher than that of ciprofloxacin” value in series [4] (MDA-MB-231, ratio of IC50 values) is ~55,000 fold. Further, the “mitochondrial mutations (DNA damage lesions)” value in series [10] is recorded as “induced mitochondrial mutations”. Also, the “mitochondria targeting (damage to mitochondrial genomic DNA)” value in [11] is given as “targeted mitochondria”. Further, in the series with MDA-MB-231 cells [12], the “mitochondrial membrane potential differences” value is on record as “reduction of mitochondrial membrane potential differences”. For the same compound, the “apoptotic effects on DU145” value in series [5] is “apoptotic effects”.

In general, pIC50 refers to the IC50 on a negative log10 scale, so that one unit is a factor of ten. A lower pIC50 goes with a high IC50.
